Test results taken from the supplement of paper PMC10307832.

Legend:
Test in all cases: relative viability (nuclei count vs DMSO), 5 days (fraction); higher = more cells survive
[1] = compound: CN(C)C/C=C/C(=O)Nc1cc2c(Nc3ccc(F)c(Cl)c3)ncnc2cc1O[C@H]1CCOC1 [Afatinib] + CC(=O)Nc1cccc(-n2c(=O)n(C3CC3)c(=O)c3c(Nc4ccc(I)cc4F)n(C)c(=O)c(C)c32)c1 [Trametinib] (partner 0.02 µM)
Procedure, shortened: (§1)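 After 5 days of treatment, lung cancer cells in 1536-well plates were fixed and stained in a single step (final 0.05% Triton X-100, 1% formaldehyde, 1 ug/ml Hoechst) and their nuclei counted on 4× images. Treatment had been applied by pin tool the day after seeding as one drug alone or as a fixed anchor-drug dose with five library-drug doses (not always all listed) in √10 steps. Relative viability is the nuclei count of treated wells divided by that of vehicle wells, and values are medians of duplicate plates.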

[2] = compound: CN(C)C/C=C/C(=O)Nc1cc2c(Nc3ccc(F)c(Cl)c3)ncnc2cc1O[C@H]1CCOC1 [Afatinib] + O=C(c1cc(Cc2n[nH]c(=O)c3ccccc23)ccc1F)N1CCN(C(=O)C2CC2)CC1 [Olaparib] (partner 8 µM)
Procedure, shortened: as §1

[3] = compound: CN(C)C/C=C/C(=O)Nc1cc2c(Nc3ccc(F)c(Cl)c3)ncnc2cc1O[C@H]1CCOC1 [Afatinib] + CS(=O)(=O)CCNCc1ccc(-c2ccc3ncnc(Nc4ccc(OCc5cccc(F)c5)c(Cl)c4)c3c2)o1 [Lapatinib] (partner 2 µM)
Procedure, shortened: as §1

[4] = compound: CN(C)C/C=C/C(=O)Nc1cc2c(Nc3ccc(F)c(Cl)c3)ncnc2cc1O[C@H]1CCOC1 [Afatinib] + N=C(N)NC(=N)NCCc1ccccc1 [Phenformin] (partner 250 µM)
Procedure, shortened: as §1

Cell Line	relative viability ([1]; first compound 0.005 µM)	relative viability ([1]; first compound 0.01581 µM)	relative viability ([1]; first compound 0.05 µM)	relative viability ([1]; first compound 0.1581 µM)	relative viability ([1]; first compound 0.5 µM)	relative viability ([2]; first compound 0.005 µM)	relative viability ([2]; first compound 0.01581 µM)	relative viability ([2]; first compound 0.05 µM)	relative viability ([2]; first compound 0.1581 µM)	relative viability ([2]; first compound 0.5 µM)	relative viability ([3]; first compound 0.005 µM)	relative viability ([3]; first compound 0.01581 µM)	relative viability ([3]; first compound 0.05 µM)	relative viability ([3]; first compound 0.1581 µM)	relative viability ([3]; first compound 0.5 µM)	relative viability ([4]; first compound 0.005 µM)	relative viability ([4]; first compound 0.01581 µM)	relative viability ([4]; first compound 0.05 µM)	relative viability ([4]; first compound 0.1581 µM)	relative viability ([4]; first compound 0.5 µM)
NCI-H1944	0.431	0.373	0.358	0.259	0.298	0.384	0.364	0.39	0.326	0.332	0.884	0.795	0.691	0.799	0.858	0.19	0.195	0.188	0.174	0.166
HARA	0.417	–	0.38	0.311	0.38	0.688	–	0.344	0.462	0.391	0.727	0.668	0.608	0.688	0.888	0.391	0.27	0.327	0.376	0.375
NCI-H2126	0.529	0.585	0.493	0.462	0.459	0.934	0.881	0.85	0.645	0.665	0.779	0.688	0.686	0.761	0.799	0.584	0.509	0.485	0.434	0.483
LXF-289	0.702	0.716	0.616	0.613	0.647	1.12	1.06	1.09	1.04	1.03	0.937	0.91	0.95	0.903	0.917	0.492	0.521	0.534	0.468	0.471
NCI-H460	0.161	0.139	0.187	0.133	0.136	0.373	0.407	0.439	0.458	0.491	0.973	0.932	1.04	1.02	0.842	0.549	0.517	0.536	0.558	0.498
NCI-H1395	1.13	0.832	1.09	0.911	1.06	0.471	0.475	0.463	0.483	0.49	1.13	0.965	1.22	1.02	0.897	0.476	0.41	0.447	0.442	0.449
NCI-H2170	0.892	0.853	0.615	0.169	0.156	0.624	0.598	0.475	0.169	0.155	0.297	0.283	0.268	0.269	0.315	0.368	0.383	0.335	0.216	0.208
NCI-H2009	0.314	0.217	0.319	0.268	0.247	0.578	0.699	0.743	0.648	0.665	0.964	0.934	1.07	0.995	1.01	0.515	0.481	0.545	0.424	0.445
